# According to patent US8921321B2, “Therapeutic strategies for prevention and treatment of alzheimer's disease” (Isis Innovation Ltd., priority 2001, dated 2014):
# How the values were obtained:
# [1] = system: SH-SY5Y human neuroblastoma cells; assay: MTT proliferation and cell survival assay; assay type: cell-based; settings: drug alone: rapamycin 100 ng/ml, doxorubicin 1 μM, dexrazoxane 200 μM; vs control cultures; FIG. 1a
# Procedure: (§1) SH-SY5Y cells were treated with three candidate agents: rapamycin (Rapa) at 100 ng/ml, doxorubicin (Doxo) at 1 μM and Dexrazoxane (DexRaz) at 200 μM and then tested one day (d1) and two days (d2) after treatment for the following 7 parameters, which are indicative of cell cycle defects and “AD-type” pathology:
# (§2) In order to evaluate the effect of drug pre-treatment is protecting against the effects of oxidative stress cells were subjected to oxidative stress (by treatment with 120 μM H2O2) in the absence of drug treatment and after treatment with rapamycin or dexrazoxane, and then tested for the same parameters. Results are shown in FIGS. 1-7, panel b (FIG. 1b, FIG. 2b, FIG. 3b, FIG. 4b, FIG. 5b, FIG. 6b, FIG. 7b).
# Finally, cells were treated with doxorubicin after treatment with rapamycin or dexrazoxane and then tested for the same parameters, to evaluate the effects of combined treatment. […]
# Cell survival and proliferation was assessed by MTT proliferation and cell survival assay, performed according to the manufacturers recommendations (Chemicon International, Ltd., Hampshire, UK) in the final 4 hours of the 24 hours period. The results of the assay were evaluated using an Opsys MR ELISA plate reader (Dynex Technologies, Middlesex, UK) at 570 nm with a reference wavelength of 630 nm.
# [2] = system: SH-SY5Y human neuroblastoma cells; assay: Apoptosis by flow cytometry (sub-G1 DNA content); assay type: cell-based; settings: drug alone: rapamycin 100 ng/ml, doxorubicin 1 μM, dexrazoxane 200 μM, FIG. 2a
# Procedure: as §1, §2
# (§3) Finally, cells were treated with doxorubicin after treatment with rapamycin or dexrazoxane and then tested for the same parameters, to evaluate the effects of combined treatment. Results are shown in FIGS. 1-7, panel c (FIG. 1c, FIG. 2c, FIG. 3c, FIG. 4c, FIG. 5c, FIG. 6c, FIG. 7c).
# (§4) SH-SY5Y human neuroblastoma cells were cultured in Dulbecco's modified Eagle's medium (DMEM)/F12 supplemented with 10% fetal calf serum (FCS, PAA Laboratories, Austria), 2 mM L-glutamine, 100 IU/ml penicillin and 100 μg/ml streptomycin (Gibco) in a humidified incubator at 37° C. and 5% CO2.
# (§5) After 24 h incubation the culture medium was replaced by DMEM/F12 with 10% FCS containing various concentrations of drug. The cells were incubated for another 24 or 48 hours.
# (§6) The cell cultures were repeated in identical conditions in order to analyze cell cycle kinetics by flow cytometry and to study protein expression.
# (§7) The cultures prepared for flow cytometry were harvested after a short incubation with Trypsin EDTA (Sigma) in PBS. Cells were fixed in 70% ice-cold alcohol. Prior to staining with propidium iodide (PI) the samples were washed twice in PBS containing Triton-X at 0.1%. On flow cytometry the ratio of G1 and G2 cells was measured. Cells with sub-G1 DNA content were regarded as the apoptotic fraction.
# [3] = system: SH-SY5Y human neuroblastoma cells; assay: Relative lengthening of the G1 phase of the cell cycle by flow cytometry; assay type: cell-based; settings: drug alone, FIG. 3a
# Procedure: as §1, §2
# Finally, cells were treated with doxorubicin after treatment with rapamycin or dexrazoxane and then tested for the same parameters, to evaluate the effects of combined treatment. Results are shown in FIGS. 1-7, panel c (FIG. 1c, FIG. 2c, FIG. 3c, FIG. 4c, FIG. 5c, FIG. 6c, FIG. 7c). […]
# The cultures prepared for flow cytometry were harvested after a short incubation with Trypsin EDTA (Sigma) in PBS. […] On flow cytometry the ratio of G1 and G2 cells was measured. […]
# [4] = system: SH-SY5Y human neuroblastoma cells; assay: Relative lengthening of the G2 phase of the cell cycle by flow cytometry; assay type: cell-based
# Procedure: as §1, §2, §3, §4, §5, §6, §7
# [5] = system: amyloid precursor protein (APP); assay: ELISA of APP expression in SH-SY5Y cell lysates; assay type: cell-based, human; settings: for Expression of APP: drug alone, FIG. 5a
# Procedure: as §1, §2, §3, §4, §5, §6
# (§8) The cultures prepared for protein expression assays were harvested after a short wash with cold PBS by scraping. The collected cells were lysed in 150 μl of lysis buffer containing 50 mM Tris-HCl (pH 7.4), 100 mM NaCl, 1 mM EDTA, 0.5% (v/v) Nonidet P-40, 50 mM NaF, 0.2 mM Na3VO4, 20 μg/ml phenylmethylsulfonyl fluoride, and 5 μg/ml leupeptin, and incubated on ice for 30 min. The cell lysate was centrifuged at 14,000 g for 20 min at 4° C. to remove insoluble pellets. Protein concentration was determined by the Bradford assay. ELISA assays were performed using a panel of antibodies. Secondary antibodies (anti rabbit or anti mouse as appropriate) conjugated to horseradish peroxidase were used.
# [6] = system: AD-type hyperphosphorylated tau protein; assay: ELISA of AD-type hyperphosphorylated tau (AT8) in SH-SY5Y cell lysates; assay type: cell-based, human; settings: for Expression of AD-type hyperphosphorylated tau: drug alone, FIG. 6a
# Procedure: as §1, §2, §3, §4, §5, §6, §8
# [7] = system: AD-type paired helical filament (PHF) tau protein; assay: ELISA of AD-type PHF tau (Tau2) in SH-SY5Y cell lysates; assay type: cell-based, human; settings: for Expression of AD-type PHF tau: drug alone, FIG. 7a
# Procedure: as §1, §2, §3, §4, §5, §6, §8
# AD-related proteins = assay: ELISA of AD-related proteins overall (APP, phospho tau, PHF tau) in SH-SY5Y cell lysates; assay type: cell-based, human
# Procedure: as §1, §2, §3, §4, §5, §6
# The cultures prepared for protein expression assays were harvested after a short wash with cold PBS by scraping. The collected cells were lysed in 150 μl of lysis buffer containing 50 mM Tris-HCl (pH 7.4), 100 mM NaCl, 1 mM EDTA, 0.5% (v/v) Nonidet P-40, 50 mM NaF, 0.2 mM Na3VO4, 20 μg/ml phenylmethylsulfonyl fluoride, and 5 μg/ml leupeptin, and incubated on ice for 30 min. […] Protein concentration was determined by the Bradford assay. […]
# [8] = drug alone, after 1 day (day 2), FIG. 4a
structure (smiles),measurement,setting,value
"C[C@@H](CN1CC(=O)NC(=O)C1)N1CC(=O)NC(=O)C1 [dexrazoxane, Dexrazoxane]",Cell survival and proliferation (cell numbers),[1],reduced cell numbers only after 2 days of treatment
same,Apoptosis,[2],did not seem to protect cells against apoptotic cell death as efficiently as rapamycin did
same,Apoptosis,[2]; listed as Dexrazoxane,did not confer protection against cell death on its own
same,Length of the G1 phase of the cell cycle,[3],acceleration of the G1 phase of the cell cycle
same,Length of the G2 phase of the cell cycle,[4]; [8],massive G2 lengthening on day 2
same,Length of the G2 phase of the cell cycle,"[4]; drug alone, day one, FIG. 4a",little change in G2 time on day one
same,Length of the G2 phase of the cell cycle,"[4]; drug pre-treatment followed by doxorubicin, FIG. 4c",increased the G2 lengthening effect of doxorubicin
same,Expression of APP,[5]; day two,by day two all three proteins were reduced in the cell lysates
same,Expression of APP,[5]; first day,increased the expression of all three AD-related proteins on the first day
same,APP production,"[5]; drug pre-treatment followed by doxorubicin, FIG. 5c",reduction of the APP and PHF-tau production
same,Expression of AD-type hyperphosphorylated tau,[6]; day two,by day two all three proteins were reduced in the cell lysates
same,Expression of AD-type hyperphosphorylated tau,[6]; first day,increased the expression of all three AD-related proteins on the first day
same,Phospho-tau production,"[6]; drug pre-treatment followed by doxorubicin, FIG. 6c",did not significantly effect the phospho-tau production
same,Expression of AD-type PHF tau,[7]; day two,by day two all three proteins were reduced in the cell lysates
same,Expression of AD-type PHF tau,[7]; first day,increased the expression of all three AD-related proteins on the first day
same,PHF tau formation,"[7]; drug pre-treatment followed by doxorubicin, FIG. 7c",reduction of the APP and PHF-tau production
same,AD-related protein expression (overall),AD-related proteins; drug alone,effectively reduced AD-related protein expression after two days in culture
same,AD-related protein expression (overall),"AD-related proteins; drug pre-treatment followed by doxorubicin, summary statement",protective effects against AD-related protein expression became more robust
COc1cccc2c1C(=O)c1c(O)c3c(c(O)c1C2=O)C[C@@](O)(C(=O)CO)C[C@@H]3O[C@H]1C[C@H](N)[C@H](O)[C@H](C)O1 [doxorubicin],Cell survival and proliferation (cell numbers),[1],reduced cell numbers
same,Apoptosis,[2],seems to be protective against apoptotic cell death
same,Apoptosis,[2]; listed as Doxorubicin,appeared to be protective against apoptosis
same,Length of the G1 phase of the cell cycle,[3]; after 1 day (day 2),effect on G1 was reversed after 1 day
same,Length of the G2 phase of the cell cycle,"[4]; drug alone, FIG. 4a",lengthening of the G2 phase
same,Length of the G2 phase of the cell cycle,"[4]; drug alone, FIG. 4a, listed as Doxorubicin",lengthening of the G2 phase of the cell cycle
same,Length of the G2 phase of the cell cycle,[4]; [8],G2 inhibitory effect diminished
same,Expression of APP,[5],elevated expression of APP
same,Expression of AD-type hyperphosphorylated tau,[6],reduction of phospho-tau
same,Expression of AD-type PHF tau,[7],elevated expression
same,AD-related protein expression (overall),AD-related proteins; drug alone,elevation of AD-related protein expression
